Laboratory results reported in PMC6320962, “Synthesis, Experimental and Density Functional Theory (DFT) Studies on Solubility of Camptothecin Derivatives” (Molecules, 2018).

What was measured:
[1] = test system: wild-type HIV-1; parameters: method as in PMID 21344906; conditions: cited from earlier work
[2] = in words; cited from earlier work
[3] = clinical trial, early 1970s; cited from earlier work

## Cc1cc(/C=C/C#N)cc(C)c1Nc1ccnc(Nc2ccc(C#N)cc2)n1 [rilpivirine]
[1]
  EC50: 0.67 nM

## CC[C@@]1(O)C(=O)OCc2c1cc1n(c2=O)Cc2cc3ccccc3nc2-1 [CPT, Camptothecin]
[2]
  water solubility: negligible water solubility

## CC[C@@]1(O)C(=O)OCc2c1cc1n(c2=O)Cc2c-1nc1ccc(C3CCCCC3)cc1c2C [P210, 10-Cyclohexyl-7-methyl-20(S)-camptothecin]
other
  melting point: 243 to 245 °C

## CC[C@@]1(O)C(=O)OCc2c1cc1n(c2=O)Cc2c-1nc1ccc(N3CCOCC3)cc1c2C [P211, 7-Methyl-10-morpholino-20(S)-camptothecin]
other
  melting point: 283 to 285 °C

## CC[C@@](O)(C(=O)[O-])c1cc2n(c(=O)c1CO)Cc1cc3ccccc3nc1-2.[Na+] [compound 15]
[3]
  efficacy: low efficacy
  side effects: unpredictable and severe side effects, including hemorrhagic cystitis and myelotoxicity
